Experimental data taken from the C3SDB collision cross section collection.
Where “and” joins values, the source holds several entries; their conditions need not be identical. Equal values may be shown once.

Conditions: instrument: DT, single field, calibrated with ESI Low Concentration Tuning Mix (Agilent)

| SMILES | collision cross section (N2) ([M-H]-) | collision cross section (N2) ([M+H]+) | collision cross section (N2) ([M+Na]+) [Å²] | collision cross section (N2) ([M+Na-2H]-) [Å²] | collision cross section (N2) ([M+H2O-H]-) [Å²] | collision cross section (N2) ([M+K]+) [Å²] |
| --- | --- | --- | --- | --- | --- | --- |
| Cc1ccc(O)c(O)c1 [4-METHYLCATECHOL] | 121 Å² | – | – | – | – | – |
| O=C(O)c1ccnc2ccccc12 [4-QUINOLINECARBOXYLATE] | 134.3 Å² | 133.4 Å² | – | – | – | – |
| C[C@H]1O[C@@H](n2cnc3c(N)ncnc32)[C@H](O)[C@@H]1O [5'-DEOXYADENOSINE] | 154.8 Å² | 152.3 Å² and 158.4 Å² | 167.2 | – | – | – |
| Cc1cc2nc[nH]c2cc1C [5,6-DIMETHYLBENZIMIDAZOLE] | 129.9 Å² | 130.3 Å² | – | – | – | – |
| NC(Cc1c[nH]c2ccc(O)cc12)C(=O)O (configuration not stated) [5-HYDROXYTRYPTOPHAN] | 146.9 Å² and 151.5 Å² | 154.5 Å² | 152.6 | 149.7 | – | – |
| O=C(O)CCCCCC(=O)O [6-CARBOXYHEXANOATE] | 130.9 Å² | – | 140 | 134.4 | – | – |
| O=C(O)CCCCCCCCCO [10-HYDROXYDECANOATE] | 144.3 Å² | – | 151 | – | – | – |
| NCCP(=O)(O)O [(2-AMINOETHYL)PHOSPHONATE] | 120 Å² | 129 Å² | 136.5 | – | – | – |
| Nc1ncnc2c1ncn2[C@@H]1O[C@H](COP(=O)(O)O)[C@@H](OP(=O)(O)O)[C@H]1O [ADENOSINE 3',5'-DIPHOSPHATE] | 184.3 Å² | 183.3 Å² | 188 | 188.5 | – | – |
| Nc1ncnc2c1ncn2C1OC(COP(=O)(O)OP(=O)(O)OCC2OC(O)C(O)C2O)C(O)C1O (configuration not stated) [ADENOSINE DIPHOSPHATE RIBOSE] | 202.3 Å² and 207.2 Å² | 212.4 Å² | 217.5 | 211.5 | 204.5 | – |
| Nc1ncnc2c1ncn2[C@@H]1O[C@H](COP(=O)(O)OP(=O)(O)O[C@H]2O[C@H](CO)[C@@H](O)[C@H](O)[C@H]2O)[C@@H](O)[C@H]1O [ADP-GLUCOSE] | 217.5 Å² | 216.1 Å² | 224.9 | 218.4 | – | – |
| C[C@H](O)[C@H](N)C(=O)O [ALLOTHREONINE] | 119.3 Å² | – | – | – | – | – |
| Cn1cncc1C[C@H](NC(=O)CCN)C(=O)O [ANSERINE] | 154.8 Å² | 153.8 Å² | 156.2 | – | – | – |
| OC[C@@H](O)C(O)[C@H](O)CO [ARABITOL] | 124.9 Å² | – | 135.8 | – | – | – |
| NC(N)=NCCC[C@H](N)C(=O)O [ARGININE] | 136.4 Å² | 136.6 Å² | 148.6 | – | – | – |
| O=C(O)CCCCCCCC(=O)O [AZELATE] | – | – | 148.4 | 141.9 | – | – |
| NC(=O)c1ccc[n+]([C@@H]2O[C@H](COP(=O)([O-])OP(=O)(O)OC[C@H]3O[C@@H](n4cnc5c(N)ncnc54)[C@H](O)[C@@H]3O)[C@@H](O)[C@H]2O)c1 [BETA-NICOTINAMIDE ADENINE DINUCLEOTIDE] | 223.8 Å² | 227.5 Å² | 222.7 | 230.8 | – | – |
| NCCC(=O)N[C@@H](Cc1cnc[nH]1)C(=O)O [CARNOSINE] | 152.1 Å² | 150.8 Å² | 154.7 | – | – | – |
| OC[C@H]1O[C@@H](O[C@H]2[C@H](O)[C@@H](O)[C@H](O)O[C@@H]2CO)[C@H](O)[C@@H](O)[C@@H]1O [CELLOBIOSE] | 179.7 Å² | – | 178.7 | – | – | 180.9 |
| O=C(O)CC(O)(CC(=O)O)C(=O)O [CITRATE] | 127.1 Å² | – | 143.1 | – | – | – |
| NC(=O)NCCC[C@H](N)C(=O)O [CITRULLINE] | 135.4 Å² | 137.7 Å² | 139.4 | – | – | – |
| NC(CS(=O)(=O)O)C(=O)O (configuration not stated) [CYSTEATE] | 123 Å² | 140.2 Å² | 148.2 | 131.4 | – | – |
| Nc1ccn(C2O[C@H](CO)[C@H]3OP(=O)(O)O[C@@H]23)c(=O)n1 (some centres not stated) [CYTIDINE 2',3'-CYCLIC PHOSPHATE] | 164.5 Å² | 163.3 Å² | 167.4 | 165 | 167.1 | 168 |
| NCCC[C@@H](N)C(=O)O [D-ORNITHINE] | 128.3 Å² | 128.1 Å² | – | – | – | – |
| O=P(O)(O)OC[C@H]1OC(O)[C@H](O)[C@@H]1O (stereo partly drawn) [D-RIBOSE 5-PHOSPHATE] | 139.4 Å² | – | 150.5 | – | – | – |
| C[C@H](CCC(=O)O)[C@H]1CC[C@H]2[C@@H]3CC[C@@H]4C[C@H](O)CC[C@]4(C)[C@H]3C[C@H](O)[C@]12C [DEOXYCHOLATE] | 202.2 Å² and 202.3 Å² | – | – | – | – | – |
| Nc1ccn([C@H]2C[C@H](O)[C@@H](CO)O2)c(=O)n1 [DEOXYCYTIDINE] | 148.7 Å² | – | 155.2 | – | – | 158.5 |
| Nc1nc(=O)c2ncn([C@H]3C[C@H](O)[C@@H](COP(=O)(O)OP(=O)(O)OP(=O)(O)O)O3)c2[nH]1 [DGTP] | 191.4 Å² | – | – | 182.7 | – | – |
| CCOC(=O)Cc1c[nH]c2ccccc12 [ETHYL 3-INDOLEACETATE] | 145.6 Å² | 145.2 Å² | 153.6 | – | – | – |
